Melting point data for 93 compounds are collected here from a melting point compilation (Tetko et al.; mined from patent text by program, amines drawn as free bases though some values may be those of a salt).

For orientation: melting point means the temperature, or range, at which the solid turns liquid.

`CNC(=O)c1cccc(C(C(N)=O)c2c[nH]c3ccccc23)c1` (stereo not drawn): the melting point was in the range of 168 to 169 °C. Compound `CCc1c(Sc2ccccc2)[nH]c(=O)[nH]c1=O` came in with a melting point of 218 to 219 °C. The value for `CCOc1c(F)cc2[nH]c(=O)c(=O)[nH]c2c1[N+](=O)[O-]` was 293 to 295 °C; that for `Nc1cccc(N)c1Oc1ccccc1` was 110 to 111 °C. The same measure for `O=C(CBr)CS(=O)(=O)C(c1ccc(Cl)cc1)c1ccc(Cl)cc1`: 122 to 123 °C; for `COc1ccc(-c2nc3cnccc3[nH]2)cc1S(C)=O` (stereo not drawn): 227 to 229 °C; for `CC(C(=O)O)c1ccc2c(c1)CC(C)(C)C2` (stereo not drawn): 180 to 183 °C. In the case of `C=Cc1cc(CNC(=O)Nc2ccc(C(C)(C)C)cc2)cc(F)c1NS(C)(=O)=O`, the melting point is 167 to 170 °C. The value for `COc1ccc(C(=O)CCc2cccnc2)cc1` was 76 to 78 °C; that for `COc1cc(C(=O)O)nc(-c2cccc([N+](=O)[O-])c2)c1` was 207 to 210 °C; that for `CCc1nc(-c2ccccc2)[nH]c(=O)c1C` was 195 to 199 °C. The same measure for `CONC(=O)C=C1SC(Nc2c(Cl)cccc2Cl)=NC1=O`: 205 to 206 °C; for `Cc1ccc(S(=O)(=O)N2CCC[C@H](CBr)c3ccccc32)cc1`: 110 to 111 °C; for `CC#CCOc1ccc(S(=O)(=O)NC(C(=O)NO)c2ccc(OCCN3CCCC3)cc2)cc1` (stereo not drawn): 70 °C. `Cc1cn(-c2ccc(N)cc2C(F)(F)F)cn1` came in with a melting point of 141 to 143 °C. In the case of `CCCCCCCCCCCCSCCCc1cc(C(C)(C)C)c(O)c(C(C)(C)C)c1`, the melting point fell in the range of 26 to 27 °C. For the compound `Cc1cnc2c(N)cccc2c1Cl`, the melting point lay in the range of 112 to 114 °C. In the case of `COC1Nc2c(ccc(C)c2O)C(=O)N2CCCC12` (stereo not drawn), the melting point fell in the range of 152 to 156 °C.

Regarding `COc1ccccc1-n1c(=O)[nH]c2ccc(-c3cccc(O)c3)nc21`, the melting point fell in the range of 240 to 242 °C. Consider `COC(=O)c1ccc(F)c2c1C=CCO2`, for which the melting point fell in the range of 73.5 to 74.5 °C. `NC(=O)C(Nc1ccc(Cl)cc1)c1c(Cl)cccc1Cl` (stereo not drawn) registered a melting point of 178 °C. As to `Cc1ccccc1CC[C@H]([C@H](C)O)n1cnc(C(N)=O)c1`, the melting point is 60 to 62 °C. `CC(C)(C)OC(=O)NCc1ccccc1Br`: the melting point lay in the range of 51 to 53 °C. As to `COc1cc(Cc2cnc(N)nc2N)c(Cc2cnc(N)nc2N)cc1OC`, the melting point stood at 280 °C. `CCOC(=O)c1nnc(Cc2ccccc2Cl)n1C`: the melting point lay within 87 to 88 °C.

Take `CCCN(C1CCC1)[C@H]1COc2c(F)ccc(C(N)=O)c2C1`: the melting point lay in the range of 107 to 109 °C. Regarding `O=c1nc(-c2ccccc2)c2cc([N+](=O)[O-])ccc2n1CC12CC3CC(CC(C3)C1)C2`, the melting point fell in the range of 228 to 231 °C. For `CC(C)C(C)(C(N)=O)N1C(=O)C=CC1=O` (stereo not drawn), the melting point lay within 138 to 140 °C.

As to `CCCN(c1nc(-c2ccc(OC)cc2Cl)c(C)s1)c1cc(CO)ccc1OC`, the melting point is 115 °C. In turn, `COc1cc(OC)nc(NC(=O)NS(=O)(=O)c2cccnc2-n2cncn2)n1` displayed a melting point of 226 to 230 °C. Compound `CCCOc1cccc(CCCOc2ccc3c(c2)C=C(C(=O)O)CCS3(=O)=O)c1` returned a melting point of 128 to 131 °C. `CCOc1ccc2[nH]c(=O)n(C(C)(C)COC)c2c1` yielded a melting point of 149 °C. The value for `O=C1NC(=Cc2ccccc2Cl)C(=O)C1=NO` was 176 °C.

In turn, `N#Cc1cccc(C=CC(=O)c2ccc(F)cc2)c1` registered a melting point of 170 to 172 °C. As to `C/C(=N\OC(=O)[C@@H](NC(=O)OC(C)(C)C)C(C)C)[C@H]1CC[C@H]2[C@@H]3CCC4=CC(=O)CC[C@]4(C)[C@H]3CC[C@]12C`, the melting point lay within 82 to 84 °C. The compound `N#Cc1c(Cl)cc(Cl)cc1[N+](=O)[O-]` gave a melting point of 102 to 103 °C. `Cc1c(Cc2ccccc2)c(=O)oc2cc(OCC3=NNN(C)N3)cc(OCC3=NNN(C)N3)c12` displayed a melting point of 71 to 76 °C. As for `COc1ccc(CC(=O)O)c(C)c1OC`, the melting point was 102 to 104 °C. In the case of `CCCOc1nc(NC(C)C(O)c2ccccc2)c2cnn(-c3ccccc3)c2n1` (stereo not drawn), the melting point was in the range of 136 to 138 °C. `CC(C)(C)c1cc(OCCCCc2nnn[nH]2)cc(C(C)(C)C)c1O` returned a melting point of 141 to 142 °C. As for `CC(=O)C(C)(C#N)c1ccc2c(c1)Cc1cccnc1O2` (stereo not drawn), the melting point worked out at 164 °C. Turning to `Cc1nnc(OC[C@H]2CN(c3ccc(C4=CCOCC4)c(F)c3)C(=O)O2)o1`, the melting point was in the range of 146 to 147 °C. Regarding `COc1cn(-c2cccc(-c3cccnc3)c2F)nc(-c2ccnn2-c2ccccc2)c1=O`, the melting point lay in the range of 147 to 153 °C.

In the case of `O=C1c2ccc(O)cc2C(=O)N1c1ccccc1`, the melting point was in the range of 116 to 118 °C.

`Cc1ccc(-c2cc(N3CCCC3)c(C#N)c3c2-c2ccccc2C3=O)cc1`: the melting point was 162 to 164 °C. The compound `c1ccc(Nc2nc(OCC3CCCCC3)c3[nH]cnc3n2)cc1` displayed a melting point of 196 to 199 °C. With `COc1cc(S)c(C(C)=O)c(OC)c1`, the melting point is 57 to 59 °C. Take `C=CCc1cc(C#N)ccc1O`: the melting point worked out at 70 °C. The compound `Cc1ccc(C(=O)NCc2ccc(Br)cc2F)c(OCC(=O)O)c1` gave a melting point of 188 to 189 °C. `O=C(Nc1ccc(O)cc1O)c1cc(Cl)c(O)c(Cl)c1` registered a melting point of 235 to 237 °C. Turning to `O=C(NCCBr)Oc1ccccc1`, the melting point fell in the range of 57 to 60 °C. The same measure for `CCS(=O)(=O)c1ccc2c(c1)nc(CC(C)(C)C)n2CC1(O)CCCC1`: 172 °C. The compound `COCc1nccc(SCCCSc2ccc3ncc([N+](=O)[O-])n3n2)c1C` had a melting point of 107 to 110 °C. `Cc1nc(-n2ccc(O)cc2=O)sc1C(=O)NCc1ccc(F)c(F)c1` had a melting point of 294 to 296 °C. The same measure for `COCn1ccnc1C(O)(c1ccccc1)c1ccccc1C(C)(C)C` (stereo not drawn): 149 to 150 °C.

In turn, `N#Cc1ccc(Nn2cnnc2)cc1-c1ccco1` displayed a melting point of 217 to 218 °C. The compound `Cn1nc(-c2c(F)cccc2Cl)nc1-c1ccc(CBr)c(Cl)c1` had a melting point of 124 to 126 °C. Compound `O=CNc1nc(NC2CC2)nc(N2CCOCC2)n1` gave a melting point of 288 °C. The value for `CCOC(C#N)NC(=O)c1ccccc1` (stereo not drawn) was 107 to 110 °C; that for `CC(=O)OCC1=C(c2ccccc2)C(=O)N(C(C)(C)C(=O)Nc2cccc(C(F)(F)F)c2)CO1` was 76.5 to 77.5 °C; that for `Cc1ccc(C(=O)NCCCCOc2ccc(-n3ccnc3)cc2)cc1` was 128 to 130 °C. As for `CCOC(OCC)C(N)c1nnnn1C` (stereo not drawn), the melting point is 99 to 101 °C.

`O=C(O)c1cc(=O)c2cc(C(F)(F)F)ccc2[nH]1` came in with a melting point of 287 to 289 °C.

For the compound `COc1ccc2c(c1)CCC(c1ccncc1)O2` (stereo not drawn), the melting point was in the range of 88 to 91 °C. `Cc1c(/C=C/c2ccccc2)nc2ccc(C(=O)O)cn2c1=O`: the melting point lay within 312 to 313 °C. The value for `CC(ON=Cc1c(F)cccc1Cl)C(=O)O` (stereo not drawn) was 106 to 107 °C. As for `COC(=O)COc1c(I)cc(-c2c3ccccc3cc3sc4ccccc4c23)cc1I`, the melting point lay in the range of 203 to 205 °C.

Turning to `Cc1ccnc(CSc2nc3ccccc3c(=O)n2-c2ccccc2)c1`, the melting point lay within 145 to 150 °C. The same measure for `COC(=O)C1CN1C(c1ccccc1)(c1ccccc1)c1ccccc1` (stereo not drawn): 127 to 128 °C. Turning to `CS(=O)(=O)N(CCI)N(S(C)(=O)=O)S(C)(=O)=O`, the melting point was 136 to 138 °C.

As for `CCCCCCCC(=N)NC(=S)Nc1ccc(Cl)cc1`, the melting point lay in the range of 98 to 99 °C. `COc1ccc(C2=NN(Cc3ccccc3O)C(=O)[C@H]3CCCC[C@@H]23)cc1OC` (relative stereo): the melting point is 132 to 133 °C. In the case of `COCCCNc1c([N+](=O)[O-])cnc2ccccc12`, the melting point was in the range of 93 to 95 °C. The compound `O=S(=O)(c1cccc(C(F)(F)F)c1)c1cc(Br)nc(Br)c1` had a melting point of 156 to 158 °C. The same measure for `N#CC(C(=O)NC1CCC1)C(=O)C1CC1` (stereo not drawn): 110 to 111 °C; for `CCNC1CN(c2c(F)cc3c(=O)c(C(=O)O)cn(-c4nc(N)c(F)cc4F)c3c2Br)C1`: 195 to 196 °C. `N=C(N)NCCC[C@H](NC(=O)CNC(=O)C(CS)Cc1ccccc1)C(=O)O` (stereo partly drawn) showed a melting point of 120 to 137 °C. Compound `CC(C)C[C@H](NC(=O)C12CC3CC(CC(C3)C1)C2)C(=O)NCC(N)=O` showed a melting point of 123 to 127 °C. `COc1cccc(N2CCN(CC(O)COC(c3ccccc3)c3cccc4ccccc34)CC2)c1` (stereo not drawn) displayed a melting point of 84 °C. As for `Nc1nc2ccccc2c2c1nc(CO)n2CCCCNC(=O)C1CCCC1`, the melting point fell in the range of 183 to 186 °C. `CCCCCCCC(=O)Oc1ccc(C(=O)O)cc1` had a melting point of 51 °C. The value for `COC(=O)C(=CC(=CN(C)C)c1ccc(C)cc1[N+](=O)[O-])[N+](=O)[O-]` was 213 to 215 °C. As to `C#CCNC(=C[N+](=O)[O-])NCCSCc1nccs1`, the melting point lay in the range of 121 to 123 °C.

In turn, `O=C(NCCNCc1cc2cc(O)ccc2o1)C12CC3CC(CC(C3)C1)C2` showed a melting point of 140 to 143 °C. The value for `N#Cc1nc(-c2ccccc2)c(-c2ccccc2)nc1Cl` was 201 to 204 °C; that for `Cc1c(-c2cc(C(=O)OC(C)C)c(Cl)cc2F)nn(C)c1C(F)(F)F` was 72 °C. Compound `Cc1ccc(C)c(SCCCCCCCC(=O)O)c1` yielded a melting point of 60 to 63 °C. `O=C1CC(c2cccs2)=Nc2ccc(I)cc2N1` displayed a melting point greater than 260 °C. Regarding `COc1ccc(C=C(C#N)c2ccccn2)cc1OC`, the melting point is 112 °C. For the compound `COC(=O)c1[nH]c(-c2ccccc2)c(-c2ccccc2)c1C(=O)OC`, the melting point fell in the range of 185 to 187 °C. Compound `CCCC(=NOCC)C1=C(O)CC(c2c(OC)nc(C)c3c2CCCC3=O)CC1=O` (stereo not drawn) yielded a melting point of 162 °C.

As to `Cc1cc(C(=O)NN)ccc1-c1ccc(C(=O)C2CN(C)CCC23COc2cc4c(cc23)NCC4)cc1` (stereo not drawn), the melting point was in the range of 130 to 135 °C. The compound `CCOC(=O)c1cc(S)n2nc(C)nc2n1` had a melting point of 234 to 236 °C.
